Results as given in patent US5639783A, “Ketone derivatives” (Mitsubishi Chemical Corporation, priority 1991, dated 1997).
Where two headings read alike, the source gives them in different places.

Assays:
Type in all cases: biochemical
papain = target: T1, papain (Carica papaya, UniProt P00784); assay: Thiol protease inhibitory activity, papain (P-3125, Sigma)
T1 sequence (P00784 134-345): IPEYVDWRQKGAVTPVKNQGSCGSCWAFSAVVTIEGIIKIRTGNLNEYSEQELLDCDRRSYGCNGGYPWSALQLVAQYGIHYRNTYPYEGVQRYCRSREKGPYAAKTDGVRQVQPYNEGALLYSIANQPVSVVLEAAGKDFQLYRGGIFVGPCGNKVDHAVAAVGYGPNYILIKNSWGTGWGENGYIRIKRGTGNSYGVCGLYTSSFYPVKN
Experimental: (§1) Inhibitory activity against papain (P-3125, Sigma) and cathepsin B (C-6286, Sigma) was assayed according to the method described in a literature [Biochemical Journal, 201, 189 (1982)]. Cathepsin L was purified from rat kidney according to the method in a literature [Journal of Biochemistry, 100, 35 (1986)], and the inhibitory activity against it was assayed in the same manner as described in the above literature for cathepsin B. Furthermore, m-calpain was purified from rat brain according to a known method [Journal of Biological Chemistry, 254, p. 3210 (1984)] and the inhibitory activity against it was assayed by a method described in a literature [Journal of Biological Chemistry, 259, 12489 (1984)]. It is evident from Tables 3 and 4 that the compounds of the present invention have a potent inhibitory activity against thiol proteases such as papain, cathepsin B, cathepsin L or m-calpain.

m-calpain = target: T2, m-calpain (Rattus norvegicus, UniProt Q07009); assay: Thiol protease inhibitory activity, m-calpain purified from rat brain
T2 construct: m-calpain was purified from rat brain; from tissue; host or cells: rat brain
T2 sequence (Q07009 20-700 limits assumed): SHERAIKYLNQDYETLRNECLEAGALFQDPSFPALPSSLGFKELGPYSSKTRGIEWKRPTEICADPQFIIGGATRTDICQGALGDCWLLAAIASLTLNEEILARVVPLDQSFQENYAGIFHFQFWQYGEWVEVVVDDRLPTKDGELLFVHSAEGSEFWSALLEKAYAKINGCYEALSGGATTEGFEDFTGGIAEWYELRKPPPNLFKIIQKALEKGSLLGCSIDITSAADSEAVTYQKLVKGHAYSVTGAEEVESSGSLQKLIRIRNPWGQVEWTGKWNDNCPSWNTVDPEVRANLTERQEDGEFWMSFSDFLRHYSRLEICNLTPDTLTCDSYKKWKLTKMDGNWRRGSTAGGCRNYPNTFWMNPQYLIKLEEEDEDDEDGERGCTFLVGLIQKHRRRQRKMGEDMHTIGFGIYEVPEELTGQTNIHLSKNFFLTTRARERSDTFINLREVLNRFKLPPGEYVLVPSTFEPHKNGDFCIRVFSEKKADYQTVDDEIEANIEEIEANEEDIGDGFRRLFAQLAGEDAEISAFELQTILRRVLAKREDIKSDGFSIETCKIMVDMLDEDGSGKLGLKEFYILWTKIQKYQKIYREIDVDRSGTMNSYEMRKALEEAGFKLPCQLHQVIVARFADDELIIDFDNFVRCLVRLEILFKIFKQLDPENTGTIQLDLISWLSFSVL
T2 sequence (Q64537 1-270 partner): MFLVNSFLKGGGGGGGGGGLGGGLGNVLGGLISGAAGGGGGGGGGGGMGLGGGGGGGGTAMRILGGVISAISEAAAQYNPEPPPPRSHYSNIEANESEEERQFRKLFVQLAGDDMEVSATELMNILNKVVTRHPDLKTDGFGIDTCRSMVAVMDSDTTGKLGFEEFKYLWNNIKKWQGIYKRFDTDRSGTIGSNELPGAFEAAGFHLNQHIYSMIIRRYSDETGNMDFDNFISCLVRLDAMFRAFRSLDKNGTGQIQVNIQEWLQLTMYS
Experimental: as §1

cathepsin L = target: T3, cathepsin L (Rattus norvegicus, UniProt P07154); assay: Thiol protease inhibitory activity, cathepsin L purified from rat kidney; conditions: Table 3
T3 construct: Cathepsin L was purified from rat kidney; from tissue; host or cells: rat kidney
T3 sequence (P07154 114-334): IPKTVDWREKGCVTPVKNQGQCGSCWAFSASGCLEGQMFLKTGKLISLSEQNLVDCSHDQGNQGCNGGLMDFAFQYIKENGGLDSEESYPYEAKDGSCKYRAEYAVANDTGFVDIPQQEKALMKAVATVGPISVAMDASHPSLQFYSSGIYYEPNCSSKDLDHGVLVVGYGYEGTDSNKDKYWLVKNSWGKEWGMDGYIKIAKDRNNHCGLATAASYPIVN
Experimental: as §1

cathepsin B = target: T4, cathepsin B (Bos taurus, UniProt P07688); assay: Thiol protease inhibitory activity, cathepsin B (C-6286, Sigma); conditions: Table 3
T4 construct: purchased Sigma C-6286
Experimental: as §1

SMILES	IC50 (papain; Table 3, read-out: IC50 papain) [nM]	IC50 (m-calpain; Table 3) [nM]	IC50 (cathepsin L) [nM]	IC50 (cathepsin B) [nM]	IC50 (papain) [nM]	IC50 (m-calpain; Table 4) [nM]
CCCC[C@H](NC(=O)[C@H](CC(C)C)NC(=O)COc1cccc(C)c1)C(=O)CSCc1ccco1 [45 (No. 97), (s)-1-furfurylthio-3-[(s)-4-methyl-2-(3-methylphenoxyacetylamino)valerylamino]-2-heptanone]	510	11000	190	380		
CSCC(=O)[C@H](Cc1ccccc1)NC(=O)[C@H](CC(C)C)NC(=O)Cc1cccc2ccccc12 [120 (No. 256), (s)-3-[(s)-4-methyl-2-(1-naphtylacetylamino)valerylamino]-1-methylthio-4-phenyl-2-butanone]	56000	26000	490	3900		
CCCC[C@H](NC(=O)[C@H](CC(C)C)NC(=O)COc1cccc(F)c1)C(=O)CSCc1ccco1 [37 (No. 86), (s)-3-[(s)-2-(3-fluorophenoxyacetylamino)-4-methylvalerylamino]-1-furfurylthio-2-heptanone]	1300	15000	450	700		
CC(C)C[C@H](NC(=O)COc1ccccc1)C(=O)NC(Cc1cccc2ccccc12)C(=O)CSCc1ccco1 (stereo partly drawn) [209 (No. 555), l-furfurylthio-3-((s)-4-methyl-2-phenoxyacetylaminovalerylamino)-4-(1-naphtyl)-2-butanone]	9000	19000	1500	6500		
CCCC[C@H](NC(=O)[C@H](CC(C)C)NC(=O)COc1ccc2ccccc2c1)C(=O)CSCc1ccco1 [53 (No. 115), (s)-1-furfurylthio-3-[(s)-4-methyl-2-(2-naphtoxyacetylamino)valerylamino]-2-heptanone]	9200	6200	1500	11000		
CC(C)C[C@H](NC(=O)Cc1ccc2ccccc2c1)C(=O)N[C@@H](Cc1ccccc1)C(=O)CSCc1ccco1 [160 (No. 334), (s)-1-furfurylthio-3-[(s)-4-methyl-2-(2-naphtylacetylamino)valerylamino]-4-phenyl-2-butanone]	35000	28000	6600	3300		
CCCC[C@H](NC(=O)[C@H](CC(C)C)NC(=O)c1cc2ccccc2o1)C(=O)CSCc1ccco1 [91 (No. 180), (s)-3-[(s)-2-(2-benzofuranylcarbonylamino)-4-methylvalerylamino]-1-furfurylthio-2-heptanone]	160	14000	69	50		
CC(C)C[C@H](NC(=O)OCc1ccccc1)C(=O)N[C@@H](CC1CCCCC1)C(=O)CSCc1ccco1 [109 (No. 238), (s)-3-((s)-2-benzyloxycarbonylamino-4-methylvalerylamino)-4-cyclohexyl-1-furfurylthio-2-butanone]	4200	13000	1200	1100		
CCC(C)[C@H](NC(=O)OCC1CCCCC1)C(=O)N[C@@H](Cc1ccccc1)C(=O)CSCc1ccco1 (some centres unmarked) [135 (No. 288), (s)-3-((s)-2-cyclohexylmethoxycarbonylamino-3-methylvalerylamino)-1-furfurylthio-4-phenyl-2-butanone]	59000	3200	54	310		
CSCC(=O)[C@H](CCc1ccccc1)NC(=O)[C@H](CC(C)C)NC(=O)COc1ccccc1 [203 (No. 536), (s)-3-((s)-4-methyl-2-phenoxyacetylaminovalerylamino)-1-methylthio-5-phenyl-2-pentanone]		9100	380	340	4400	
CC(C)C[C@H](NC(=O)COc1ccccc1)C(=O)N[C@@H](Cc1ccc(Cl)cc1)C(=O)CSCc1ccco1 [197 (No. 511), (s)-4-(4-chlorophenyl)-1-furfurylthio-3-((s)-4-methyl-2-phenoxyacetylaminovalerylamino)-2-butanone]		7800	1700	6000	13000	
CCCC[C@H](NC(=O)[C@H](CC(C)C)NC(=O)Cc1ccccc1)C(=O)CSCc1ccco1 [30 (No. 66), (s)-1-furfurylthio-3-((s)-4-methyl-2-phenylacetylaminovalerylamino)-2-heptanone]		5100		590	150	
CCCC[C@H](NC(=O)[C@H](CC(C)C)NC(=O)COc1ccccc1Cl)C(=O)CSCc1ccco1 [39 (No. 88), (s)-3-[(s)-2-(2-chlorophenoxyacetylamino)-4-methylvalerylamino]-1-furfurylthio-2-heptanone]	250	2200		290		
CCCC[C@H](NC(=O)[C@H](CC(C)C)NC(=O)COc1cccc(OC)c1)C(=O)CSCc1ccco1 [78 (No. 103), (s)-1-furfurylthio-3-[(s)-2-(3-methoxyphenoxyacetylamino)-4-methylvalerylamino]-2-heptanone]						6000
CCCC[C@H](NC(=O)[C@H](CC(C)C)NC(=O)c1ccccc1OC)C(=O)CSCc1ccco1 [77 (No. 151), (s)-1-furfurylthio-3-[(s)-2-(2-methoxybenzoylamino)-4-methylvalerylamino]-2-heptanone]						1200
CCCC[C@H](NC(=O)[C@H](CC(C)C)NC(=O)c1cccc(F)c1F)C(=O)CSCc1ccco1 [58 (No. 120), (s)-3-[(s)-2-(2,3-difluorobenzoylamino)-4-methylvalerylamino]-1-furfurylthio-2-heptanone]						1600
CCCC[C@H](NC(=O)[C@H](CC(C)C)NC(=O)Cc1cccc2c1OCO2)C(=O)CSCc1ccco1 [32 (No. 73), (s)-1-furfurylthio-3-[(s)-4-methyl-2-(2,3-methylenedioxyphenylacetylamino)valerylamino]-2-heptanone]						6200
CC(C)C[C@H](NC(=O)Cc1csc2ccccc12)C(=O)N[C@@H](Cc1ccccc1)C(=O)CSCc1ccco1 [162 (No. 345), (s)-3-[(s)-2-(3-benzothienylacetylamino)-4-methylvalerylamino]-1-furfurylthio-4-phenyl-2-butanone]	950	3700		5300		
CCCC[C@H](NC(=O)[C@H](CC(C)C)NC(=O)c1cc(F)c(F)c(F)c1F)C(=O)CSCc1ccco1 [67 (No. 132), (s)-1-furfurylthio-3-[(s)-4-methyl-2-(2,3,4,5-tetrafluorobenzoylamino)valerylamino]-2-heptanone]						2100
CCCC[C@H](NC(=O)[C@H](CC(C)C)NC(=O)c1c(F)c(F)c(F)c(F)c1F)C(=O)CSCc1ccco1 [68 (No. 135), (s)-1-furfurylthio-3-((s)-4-methyl-2-pentafluorobenzoylaminovalerylamino)-2-heptanone]						2100
CCCC[C@H](NC(=O)[C@H](CC(C)C)NC(=O)OCC1CCCCC1)C(=O)CSCc1ccco1 [21 (No. 46), (s)-3-((s)-2-cyclohexylmethoxycarbonylamino-4-methylvalerylamino)-1-furfurylthio-2-heptanone]	130	4700		140		
CCCC[C@H](NC(=O)[C@H](CC(C)C)NC(=O)COc1cccc2ccccc12)C(=O)CSCc1ccco1 [52 (No. 114), (s)-1-furfurylthio-3-[-(s)-4-methyl-2-(1-naphtoxyacetylamino)valerylamino]-2-heptanone]	340	2500		820		
